The values below come from patent US10793580B2, “Substituted pyrazoloazepin-8-ones and their use as phosphodiesterase inhibitors” (LEO Pharma A/S, priority 2016, dated 2020).

Sequence of human PDE4D catalytic domain (Q08499 380-740): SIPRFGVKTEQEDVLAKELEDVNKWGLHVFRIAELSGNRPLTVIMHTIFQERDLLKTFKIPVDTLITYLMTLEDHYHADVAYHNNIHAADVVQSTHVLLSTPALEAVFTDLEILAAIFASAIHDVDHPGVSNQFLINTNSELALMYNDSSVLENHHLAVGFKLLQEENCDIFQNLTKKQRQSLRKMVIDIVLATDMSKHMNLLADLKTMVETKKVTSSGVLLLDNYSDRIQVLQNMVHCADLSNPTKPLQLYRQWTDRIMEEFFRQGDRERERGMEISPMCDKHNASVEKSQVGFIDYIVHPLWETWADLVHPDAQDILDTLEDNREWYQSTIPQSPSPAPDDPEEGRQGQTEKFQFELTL

One assay addresses human PDE4D catalytic domain (Homo sapiens (Human), UniProt Q08499). Briefly: PDE4 Assay (TR-FRET, FAM-cAMP cleavage). The class given is biochemical. Conditions: Table 16, Examples 277-296; read-out: PDE4 IC50 range. The procedure:
The human PDE4D catalytic domain (UniProt no. Q08499 [S380-L740]) was incubated with a mixture of non-labelled cAMP (cyclic adenosine monophosphate) and fluorescein amidite (FAM) conjugated cAMP and titrated test or reference Compound. Following brief incubation the enzymatic reaction was stopped by addition of binding buffer containing nanoparticles with immobilized trivalent metal ions capable of binding 1) AMP phospho groups and 2) terbium (Tb) donor fluorophores. Subsequent excitation of the Tb donor triggers time-resolved FRET to adjacent FAM acceptor molecules resulting in light emission. In the presence of a PDE4 inhibitor, AMP generation was reduced resulting in a lower fluorescence signal. The cAMP phosphodiester is not bound by the detection system.
The results were calculated as the molar concentrations resulting in 50% inhibition of the substrate cleavage compared to controls samples, and are expressed as a range of IC50 (nM).
A general note: In TR-FRET formats the signal depends on donor and acceptor labels being close together.
One may read the IC50 as the midpoint of a concentration-inhibition curve. Take `CCn1nc(C[C@@H](C)COC(=O)C2CCOCC2)c2c1C(=O)NCC1(CCOCC1)C2` [Example 287, [(2R)-3-(1-ethyl-8-oxo-spiro[6,7-dihydro-4H-pyrazolo[3,4-c]azepine-5,4′-tetrahydropyran]-3-yl)-2-methyl-propyl] tetrahydropyran-4-carboxylate]: the IC50 was under 0.1 µM.

The assay is the same for the next values; noted with them: Table 17, Examples 297-316; read-out: PDE4 IC50 range.
As to `CCn1nc(CC(C)(C)COC(=O)c2cc(C)nc(C)c2)c2c1C(=O)NCC1(CCOCC1)C2` [Example 313, [3-(1-ethyl-8-oxo-spiro[6,7-dihydro-4H-pyrazolo[3,4-c]azepine-5,4′-tetrahydropyran]-3-yl)-2,2-dimethyl-propyl] 2,6-dimethylpyridine-4-carboxylate], the IC50 was under 0.1 µM.

Still in this assay, the particulars now being: human PDE4D catalytic domain (UniProt Q08499 [S380-L740]); 50% inhibition of substrate cleavage; read-out: PDE4 IC50 range.
`CCn1nc(CC(C)(C)COC(=O)c2ccc(S(=O)(=O)N3CCOCC3)cc2)c2c1C(=O)NCC1(CCOCC1)C2` [Example 213, [3-(1-ethyl-8-oxo-spiro[6,7-dihydro-4H-pyrazolo[3,4-c]azepine-5,4′-tetrahydropyran]-3-yl)-2,2-dimethyl-propyl] 4-morpholinosulfonylbenzoate]: the IC50 is under 0.1 µM. On the same count and under the same terms, the result for `CCn1nc(CCCOC(=O)c2ccc(S(N)(=O)=O)cc2)c2c1C(=O)NCC1(CCOCC1)C2` [Example 65, 3-(1-ethyl-8-oxo-spiro[6,7-dihydro-4H-pyrazolo[3,4-c]azepine-5,4′-tetrahydropyran]-3-yl)propyl 4-sulfamoylbenzoate] reads under 0.1 µM; that for `CCn1ccc(C(=O)OCCCc2nn(CC)c3c2CC2(CCOCC2)CNC3=O)n1` [Example 248, 3-(1-ethyl-8-oxo-spiro[6,7-dihydro-4H-pyrazolo[3,4-c]azepine-5,4′-tetrahydropyran]-3-yl)propyl 1-ethylpyrazole-3-carboxylate], under 0.1 µM; that for `CCn1nc(CCCCOC(=O)c2cc(C)nc(C)c2)c2c1C(=O)NCC1(CCOCC1)C2` [Example 273, 4-(1-ethyl-8-oxo-spiro[6,7-dihydro-4H-pyrazolo[3,4-c]azepine-5,4′-tetrahydro-pyran]-3-yl)butyl 2,6-dimethylpyridine-4-carboxylate], under 0.1 µM.

Regarding `CCc1nc(C(=O)OCCCc2nn(CC)c3c2CC2(CCOCC2)CNC3=O)co1` [Example 251, 3-(1-ethyl-8-oxo-spiro[6,7-dihydro-4H-pyrazolo[3,4-c]azepine-5,4′-tetrahydropyran]-3-yl)propyl 2-ethyloxazole-4-carboxylate], the half-maximal inhibitory concentration (IC50) is under 0.1 µM. On the same count and under the same terms, the result for `CCn1nc(CCCCOC(=O)c2ccc(S(=O)(=O)NC)cc2)c2c1C(=O)NCC1(CCOCC1)C2` [Example 131, 4-(1-ethyl-8-oxo-spiro[6,7-dihydro-4H-pyrazolo[3,4-c]azepine-5,4′-tetrahydropyran]-3-yl)butyl 4-(methyl-sulfamoyl)benzoate] reads under 0.1 µM.

Take `CCn1nc(CCCCOC(=O)c2cscn2)c2c1C(=O)NCC1(CCOCC1)C2` [Example 269, 4-(1-ethyl-8-oxo-spiro[6,7-dihydro-4H-pyrazolo[3,4-c]azepine-5,4′-tetrahydropyran]-3-yl)butyl thiazole-4-carboxylate]: the IC50 is under 0.1 µM. Same read-out and setting: the result for `CCn1nc(CCCOC(=O)c2cc(OC)cc(C(F)(F)F)c2)c2c1C(=O)NCC1(CCOCC1)C2` [Example 82, 3-(1-ethyl-8-oxo-spiro[6,7-dihydro-4H-pyrazolo[3,4-c]azepine-5,4′-tetrahydropyran]-3-yl)propyl 3-methoxy-5-(trifluoromethyl)benzoate] reads under 0.1 µM; that for `CCn1nc(CC(C)(C)COC(=O)c2cccc(C(=O)N3CCCCC3)c2)c2c1C(=O)NCC1(CCOCC1)C2` [Example 231, [3-(1-ethyl-8-oxo-spiro[6,7-dihydro-4H-pyrazolo[3,4-c]azepine-5,4′-tetrahydro-pyran]-3-yl)-2,2-dimethyl-propyl] 3-(piperidine-1-carbonyl)benzoate], under 0.1 µM. On the same count and under the same terms, in the case of `CCn1nc(CCCOC(=O)c2cccc(S(N)(=O)=O)c2)c2c1C(=O)NCC1(CCOCC1)C2` [Example 66, 3-(1-ethyl-8-oxo-spiro[6,7-dihydro-4H-pyrazolo[3,4-c]azepine-5,4′-tetrahydropyran]-3-yl)propyl 3-sulfamoylbenzoate] it was under 0.1 µM; in that of `CCn1nc(C[C@@H](C)COC(=O)c2ccc(C(=O)N3CCOCC3)cc2)c2c1C(=O)NCC1(CCOCC1)C2` [Example 174, [(2R)-3-(1-ethyl-8-oxo-spiro[6,7-dihydro-4H-pyrazolo[3,4-c]azepine-5,4′-tetrahydropyran]-3-yl)-2-methyl-propyl] 4-(morpholine-4-carbonyl)benzoate], under 0.1 µM.

On to `CCn1nc(C[C@@H](C)COC(=O)c2ccc(C(C)=O)cc2)c2c1C(=O)NCC1(CCOCC1)C2` [Example 153, [(2R)-3-(1-ethyl-8-oxo-spiro[6,7-dihydro-4H-pyrazolo[3,4-c]azepine-5,4′-tetrahydropyran]-3-yl)-2-methyl-propyl] 4-acetylbenzoate], for which the IC50 was under 0.1 µM. In the case of `CCn1nc(CC(C)(C)COC(=O)c2ccc(S(=O)(=O)N3CCN(C(C)=O)CC3)cc2)c2c1C(=O)NCC1(CCOCC1)C2` [Example 216, [3-(1-ethyl-8-oxo-spiro[6,7-dihydro-4H-pyrazolo[3,4-c]azepine-5,4′-tetrahydropyran]-3-yl)-2,2-dimethyl-propyl] 4-(4-acetylpiperazin-1-yl)sulfonylbenzoate], the IC50 was under 0.1 µM. On the same count and under the same terms, in the case of `CCn1nc(CC(C)(C)COC(=O)c2cccc(S(=O)(=O)C(C)C)c2)c2c1C(=O)NCC1(CCOCC1)C2` [Example 206, [3-(1-ethyl-8-oxo-spiro[6,7-dihydro-4H-pyrazolo[3,4-c]azepine-5,4′-tetrahydropyran]-3-yl)-2,2-dimethyl-propyl] 3-isopropylsulfonylbenzoate] it was under 0.1 µM; in that of `CCn1nc(CCCOC(=O)c2cc(F)ccc2Cl)c2c1C(=O)NCC1(CCOCC1)C2` [Example 46, 3-(1-ethyl-8-oxo-spiro[6,7-dihydro-4H-pyrazolo[3,4-c]azepine-5,4′-tetrahydropyran]-3-yl)propyl 2-chloro-5-fluoro-benzoate], under 0.1 µM; in that of `CCn1nc(CC(C)(C)COC(=O)c2ccc(C(=O)N(C)C)cc2)c2c1C(=O)NCC1(CCOCC1)C2` [Example 220, [3-(1-ethyl-8-oxo-spiro[6,7-dihydro-4H-pyrazolo[3,4-c]azepine-5,4′-tetra-hydropyran]-3-yl)-2,2-dimethyl-propyl] 4-(di-methylcarbamoyl)benzoate], under 0.1 µM.

Turning to `CCc1cc(C(=O)OCCCc2nn(CC)c3c2CC2(CCOCC2)CNC3=O)nn1C` [Example 259, 3-(1-ethyl-8-oxo-spiro[6,7-dihydro-4H-pyrazolo[3,4-c]azepine-5,4′-tetrahydro-pyran]-3-yl)propyl 5-ethyl-1-methyl-pyrazole-3-carboxylate], the IC50 was under 0.1 µM. Still for that read-out and setting: the result for `CCn1nc(CCCOC(=O)c2cccc(OC)c2)c2c1C(=O)NCC1(CCOCC1)C2` [Example 17, 3-(1-ethyl-8-oxo-spiro[6,7-dihydro-4H-pyrazolo[3,4-c]azepine-5,4′-tetrahydropyran]-3-yl)propyl 3-methoxybenzoate] reads under 0.1 µM.

Take `CCn1nc(C[C@@H](C)COC(=O)c2ccc(S(=O)(=O)CC)cc2)c2c1C(=O)NCC1(CCOCC1)C2` [Example 157, [(2R)-3-(1-ethyl-8-oxo-spiro[6,7-dihydro-4H-pyrazolo[3,4-c]azepine-5,4′-tetrahydropyran]-3-yl)-2-methyl-propyl] 4-ethylsulfonylbenzoate]: the IC50 is under 0.1 µM.
